Assay in all cases: NCI-60 cell line screen, 48 h
The subject of test [1] is A498.
The test system of test [2] is COLO 205.
The test system of test [3] is DU-145.
Test [4] deals with HCC 2998.
The test system of test [5] is HL-60.
For test [6], the system named is HOP-92.
In test [7] the test system is M14.
The test system of test [8] is MDA-MB-231.
The subject of test [9] is NCI-H460.
Test [10] deals with OVCAR-3.
Test [11] deals with OVCAR-4.
In test [12] the test system is RPMI-8226.
In test [13] the test system is RXF 393.
The subject of test [14] is SF-268.
Test [15] relates to SK-OV-3.
Test [16] has as its system SN12C.
Test [17] deals with SW-620.
In test [18] the test system is UACC-257.
Test [19] relates to UACC-62.
For test [20], the system named is UO-31.

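The compound was tested at five concentrations on cells cultured in 96-well plates, with a 48-hour exposure period. GI50 is the concentration that inhibits growth by half.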 Active and inactive are the calls of the source. Rule as the data show it: active = GI50 up to about 1.1 µM and inactive = higher.

The results in this text go back to ChEMBL document CHEMBL1201862, “PubChem BioAssay data set” (2004).

Consider `CC(=O)Nc1c(S(=O)(=O)c2ccccc2)c(C)c(C)n1Cc1ccccc1`, for which the GI50 in test [1], in test [2], in test [3], in test [4], in test [5] and in test [6] was > 100 µM (inactive) in each case. Moreover, the GI50 in [7] is > 100 µM (inactive); in test [8], > 100 µM (inactive); in [9], > 100 µM (inactive); in test [10], 52.8 µM (inactive); in test [11], > 100 µM (inactive); in test [12], > 100 µM (inactive). Further, the GI50 in [13], in test [14], in [15], in test [16], in test [17] and in test [18] was > 100 µM (inactive) each time. Moreover, the GI50 in test [19] and in test [20] was > 100 µM (inactive) throughout.
In the case of `C=Cc1ccccc1C1C(C(=O)OCC)=C(C)N=C2OC(C(=O)OC)C(=O)N21` (stereo not given), the GI50 was > 100 µM (inactive) in test [1]; > 100 µM (inactive) in test [2]; > 100 µM (inactive) in [3]; > 100 µM (inactive) in test [4]; 87.5 µM (inactive) in [5]; > 100 µM (inactive) in test [6]. Also, the GI50 in test [7], in test [8], in test [9], in [10], in [11] and in test [12] was > 100 µM (inactive) in each case. Also, the GI50 in test [13], in test [14], in test [15], in test [16], in test [17] and in [18] was > 100 µM (inactive) in each case. For the same compound, the GI50 in test [19] and in test [20] was > 100 µM (inactive) throughout.
Consider `CC(C)=C[C@@H]1O[C@H](O)[C@@H]([C@H]2CC[C@@]3(C)[C@@H]4CC[C@H]5C(C)(C)C(=O)CC[C@@]56C[C@@]46CC[C@]23C)[C@@H]1O`, for which the GI50 was 18.3 µM (inactive) in test [1]; 20.1 µM (inactive) in [2]; 16.1 µM (inactive) in test [3]; 18.6 µM (inactive) in test [4]; 14.2 µM (inactive) in [5]; 16.6 µM (inactive) in test [6]. The GI50 is 21 µM (inactive) in [7]; 19.5 µM (inactive) in test [8]; 19.5 µM (inactive) in [9]; 13.2 µM (inactive) in [10]; 18.1 µM (inactive) in test [11]; 3.14 µM (inactive) in test [12]. Moreover, the GI50 in test [13] was 12.7 µM (inactive); in test [14], 17.6 µM (inactive); in test [15], 16.5 µM (inactive); in test [16] it was 19.3 µM (inactive); in test [17], 13.1 µM (inactive); in test [18], 16.7 µM (inactive). Moreover, the values for the GI50 in [19] and in [20] were 18.1 µM (inactive) and 15.3 µM (inactive), respectively.
Consider `O=C1C([P+](c2ccccc2)(c2ccccc2)c2ccccc2)=C([O-])C(=Cc2ccc(Cl)c(Cl)c2)C([O-])=C1[P+](c1ccccc1)(c1ccccc1)c1ccccc1`, for which the GI50 is 15.1 µM (inactive) in test [1]; 1.73 µM (inactive) in [2]; 7.67 µM (inactive) in [3]; 2.93 µM (inactive) in test [4]; 0.735 µM (active) in test [5]; 2.34 µM (inactive) in test [6]. Further, the GI50 in test [7] was 2.38 µM (inactive); in [8], 2.96 µM (inactive); in [9] it was 2.89 µM (inactive); in test [10], 1.99 µM (inactive); in [11], 2.97 µM (inactive); in test [12], 1.22 µM (inactive). Also, the GI50 was 1.71 µM (inactive) in test [13]; 1.72 µM (inactive) in test [14]; 1.93 µM (inactive) in test [15]; 2.43 µM (inactive) in test [16]; 2.17 µM (inactive) in test [17]; 2.43 µM (inactive) in test [18]. The GI50 in test [19] is 2.23 µM (inactive); in test [20], 3.75 µM (inactive).
In the case of `COc1ccc(C(=O)C#Cc2cnc(OC)nc2OC)cc1`, the GI50 in test [1] was 18.7 µM (inactive); in [2] it was 1.57 µM (inactive); in [3], 2.31 µM (inactive); in test [4], 1.84 µM (inactive); in test [5], 1.63 µM (inactive); in test [6], 1.76 µM (inactive). Further, the GI50 in test [7] was 1.36 µM (inactive); in [8] it was 32400 µM (inactive); in test [9], 2.65 µM (inactive); in [10], 1.68 µM (inactive); in test [11] it was 6.5 µM (inactive); in [12], 1.93 µM (inactive). The GI50 was 1.87 µM (inactive) in test [13]; 2.74 µM (inactive) in test [14]; 14.1 µM (inactive) in [15]; 1.19 µM (inactive) in [16]; 0.571 µM (active) in [17]; 2.09 µM (inactive) in [18]. Moreover, the GI50 in test [19] is 1.11 µM (active); in test [20] it was 1.29 µM (inactive).
With `CN1CC=C(OP(=O)(NCc2ccccc2)N(CCCl)CCCl)CC1` (stereo not given), the GI50 in [1], in test [2], in test [3], in test [4], in [5] and in test [6] was > 100 µM (inactive) throughout. The GI50 in [7], in [8], in [9], in test [10], in [11] and in [12] was > 100 µM (inactive) in each case. The GI50 was 40.9 µM (inactive) in test [13]; > 100 µM (inactive) in [14]; > 100 µM (inactive) in test [15]; > 100 µM (inactive) in test [16]; > 100 µM (inactive) in test [17]; 70.5 µM (inactive) in [18]. The GI50 in test [19] and in [20] was > 100 µM (inactive) in each case.
Regarding `NC(=O)c1cccc([C@@H]2O[C@H](CO)[C@@H](O)[C@H]2O)c1`, the GI50 in [1] was > 100 µM (inactive); in [2] it was 12.2 µM (inactive); in [3] it was 30.6 µM (inactive); in test [4], 29.3 µM (inactive); in test [5], 3.21 µM (inactive); in [6], 18.5 µM (inactive). For the same compound, the GI50 in test [7] is 3.2 µM (inactive); in test [8] it was 77.1 µM (inactive); in test [9], 48.5 µM (inactive); in [10] it was 18.9 µM (inactive); in test [11], 5.45 µM (inactive); in [12] it was 4.42 µM (inactive). In addition, the GI50 in test [13] is 8.89 µM (inactive); in test [14], 6.81 µM (inactive); in test [15], 7.21 µM (inactive); in test [16] it was 40.4 µM (inactive); in test [17] it was 7.78 µM (inactive); in test [18] it was > 100 µM (inactive). For the same compound, the GI50 was 29.1 µM (inactive) in test [19] and 5.35 µM (inactive) in test [20].
